pEC50, pIC50: −log10 of the molar value. Read-outs that look alike come from different tables or passages of the source.
Tests used:
human SMS2 = molecular target: T1, human SMS2 (Homo sapiens, UniProt Q8NHU3); assay: purified SMS enzyme inhibitory assay in vitro; type: biochemical
T1 sequence (Q8NHU3 1-365): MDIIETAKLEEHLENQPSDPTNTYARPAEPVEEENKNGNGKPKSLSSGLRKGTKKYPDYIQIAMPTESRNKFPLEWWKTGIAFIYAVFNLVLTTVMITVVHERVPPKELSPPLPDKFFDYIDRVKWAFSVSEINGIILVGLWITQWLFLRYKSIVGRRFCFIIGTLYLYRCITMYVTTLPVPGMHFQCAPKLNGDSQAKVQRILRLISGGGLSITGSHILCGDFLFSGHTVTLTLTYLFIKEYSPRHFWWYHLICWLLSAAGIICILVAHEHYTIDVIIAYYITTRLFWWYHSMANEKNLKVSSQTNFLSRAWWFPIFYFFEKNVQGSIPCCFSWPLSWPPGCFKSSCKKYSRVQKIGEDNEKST

human SMS1 = molecular target: T2, human SMS1 (Homo sapiens, UniProt Q86VZ5); assay: purified SMS enzyme inhibitory assay in vitro; type: biochemical
T2 sequence (Q86VZ5 1-413): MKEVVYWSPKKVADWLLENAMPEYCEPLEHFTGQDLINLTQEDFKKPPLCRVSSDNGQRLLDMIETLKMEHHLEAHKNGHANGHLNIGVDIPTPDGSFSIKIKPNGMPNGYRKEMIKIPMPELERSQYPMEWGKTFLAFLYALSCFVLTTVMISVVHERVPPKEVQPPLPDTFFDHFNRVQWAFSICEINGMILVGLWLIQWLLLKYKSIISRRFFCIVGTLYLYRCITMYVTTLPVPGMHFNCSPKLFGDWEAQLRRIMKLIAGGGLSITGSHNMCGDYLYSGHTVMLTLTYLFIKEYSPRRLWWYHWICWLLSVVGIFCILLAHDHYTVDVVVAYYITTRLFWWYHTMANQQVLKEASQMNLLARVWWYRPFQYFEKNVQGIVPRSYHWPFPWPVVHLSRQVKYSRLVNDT

[1] = test system: human corneal epithelial cells (HCEC); assay: Cell viability and toxicity assay; type: cell-based; settings: within 25 μmol/L; 48 h
[2] = test system: SM synthesis (SMS activity) in HCEC; assay: Cellular SM synthesis inhibitory assay in HCEC; type: cell-based, human
[3] = test system: TNF-α protein expression in HCEC; assay: Western blot of TNF-α protein expression in HCEC under hyperosmotic stress; type: cell-based, human; settings: 1 μmol/L; hyperosmotic 550 mOsm
[4] = test system: TNFR1-Caspase3 activation in HCEC; assay: Western blot of TNFR1, caspase3 and cleaved-caspase3 in HCEC; type: cell-based, human; settings: 14l 1/3 and 1 μmol/L; TNF-α 10 ng/mL, 550 mOsm
murine DED model [5] = assay: Corneal fluorescein staining in murine DED model; type: in vivo, C57BL/6 mice; settings: DED mice; 14l low dose 0.001% twice a day for 7 days
murine DED model [6] = assay: Tear volume measurement; type: in vivo, C57BL/6 mice; settings: DED mice
[7] = test system: Tnf-α, Il-1β and Mmp-9 mRNA in mouse corneas; assay: Quantitative PCR analysis of mouse corneas; type: in vivo, C57BL/6 mice; settings: DED mice, twice a day for 7 days
[8] = test system: lipid content of meibomian glands; assay: LC-MS/MS lipidomic analysis of murine meibomian gland tissue; type: in vivo, C57BL/6 mice; settings: DED mice
[9] = test system: human corneal epithelial cells (HCEC); settings: 1 μmol/L; TNF-α (10 ng/mL), 550 mOsm; after incubation for 3 h
[10] = test system: human corneal epithelial cells (HCEC); settings: 14l 1/3 and 1 μmol/L, CsA 1 μmol/L; TNF-α 10 ng/mL, 550 mOsm, 5 h
[11] = SD rats
[12] = test system: human corneal epithelial cells (HCEC); assay: cells; settings: 24 h, read-out: EC50 of protective effect on HCEC viability
in vivo = settings: male, SD, rat, topical or ocular, 16 ug
[13] = 14l 0.001% and 0.025%, CsA 0.05%
[14] = Conjunctiva, single drop 16 μg/eye
[15] = Meibomian glands, single drop 16 μg/eye

Q: With `CCCCCCCCOc1ccccc1COc1ccsc1C(=O)Nc1cccnc1` [14l, 3-((2-(Octyloxy)benzyl)oxy)-N-(pyridin-3-yl)thiophene-2-carboxamide] as the compound, how does the pIC50 (human SMS2) read?
A: 7.55

Q: And the Selectivity ratio (human SMS2; IC50, SMS1/IC50, SMS2)?
A: 589

Q: And the LLE (human SMS2; pIC50, SMS2 – ClogP)?
A: 2.21

Q: And the inhibition at 1 µM (human SMS2; read-out: SMS2 Inhibition @ 1 μmol/L (%))?
A: 95%

Q: And the pIC50 (human SMS1)?
A: 4.80

Q: What about the inhibition at 100 µM (human SMS1; read-out: SMS1 Inhibition @ 100 μmol/L (%)) of the same compound?
A: 87%

Q: And the “HCEC viability (MTT)” value [1]?
A: less influence on the cell viability

Q: What about the “effect on SMS activity of HCEC” value ([2]; 1 μmol/L) of the same compound?
A: efficient SMS inhibitory activities

Q: What about the pEC50 ([2]; Homo sapiens, HCEC, 6 h, read-out: SM synthesis inhibitory EC50 in HCEC) of the same compound?
A: 6.52

Q: What about the EC50 ([2]; Homo sapiens, HCEC, read-out: SM synthesis inhibitory EC50 in HCEC) of the same compound?
A: 0.131 µg/mL

Q: What about the TNF-α protein expression [3] of the same compound?
A: inhibited TNF-α protein expression

Q: And the “TNF-α-induced TNFR1-Caspase3 activation” value [4]?
A: effectively prevent TNF-α-induced TNFR1-Caspase3 activation

Q: And the “corneal fluorescein scores, 14l low dose” value (murine DED model [5])?
A: higher than the two other treatment groups but lower than the DED control group

Q: And the “tear volume (Schirmer's test)” value (murine DED model [6]; 14l high dose 0.025% or CsA (Zirun®) 0.05%, twice a day for 7 days)?
A: improved significantly

Q: What about the “tear volume (Schirmer's test), 14l low dose” value (murine DED model [6]; 14l low dose 0.001% twice a day for 7 days) of the same compound?
A: not in 14l low dose group

Q: What about the “Mmp-9 mRNA expression in cornea” value [7, 13] of the same compound?
A: decreased significantly in all treatment groups

Q: And the “Tnf-α mRNA expression in cornea” value [7, 13]?
A: decreased significantly in all treatment groups

Q: What about the “Il-1β mRNA expression in cornea” value ([7]; 14l high dose 0.025% or CsA 0.05%) of the same compound?
A: reduced only in 14l high dose group and CsA treatment group

Q: What about the “levels of triglycerides (TG) and cholesterol esters (ChE) in meibomian glands” value ([8]; all treatment groups) of the same compound?
A: not impacted in all treatment groups

Q: And the “proportion of very long chain SM species in meibomian glands” value ([8]; eye drops twice a day for 7 days)?
A: reduced the proportion of very long chain SM species

Q: And the “ceramide content in meibomian glands” value ([8]; high dosage of 14l (0.025%))?
A: did not induce an extreme increase and accumulation for ceramide

Q: What about the “time-dependent protective effect in HCEC” value [9] of the same compound?
A: apparent and durative protective effect

Q: What about the “HCEC population integrity and early apoptosis proportion” value [10] of the same compound?
A: a higher integrity of HCEC population and a less early apoptosis proportion

Q: And the “AUC0‒t” value [11, 14]?
A: 489.73 ng·h/g

Q: And the “AUC0‒∞” value [11, 14]?
A: 564.99 ng·h/g

Q: And the “AUC0‒t” value ([11]; Cornea, single drop 16 μg/eye)?
A: 4339.41 ng·h/g

Q: What about the “AUC0‒∞” value ([11]; Cornea, single drop 16 μg/eye) of the same compound?
A: 4567.46 ng·h/g

Q: What about the “AUC0‒t” value [11, 15] of the same compound?
A: 14379.61 ng·h/g

Q: And the “AUC0‒∞” value [11, 15]?
A: 14670.67 ng·h/g

Q: And the “adverse effect during the PK study” value ([11]; single drop 16 μg/eye)?
A: No adverse effect

Q: And the “detection in blood and retina” value ([11]; single drop 16 μg/eye)?
A: not detected in the blood and retina

Q: What about the ocular tissue distribution ([11]; single drop 16 μg/eye in 50% HP-β-CD) of the same compound?
A: distributed mainly in the meibomian glands, conjunctiva and cornea

Q: And the pEC50 [12]?
A: 6.21

Q: What about the Cmax (in vivo; conjunctiva) of the same compound?
A: 358 ng/g

Q: What about the Tmax (in vivo; conjunctiva) of the same compound?
A: 0.25 h

Q: And the half-life (in vivo; conjunctiva)?
A: 1.3 h

Q: And the Cmax (in vivo; cornea)?
A: 3050 ng/g

Q: What about the Tmax (in vivo; cornea) of the same compound?
A: 1 h

Q: And the half-life (in vivo; cornea)?
A: 1.11 h

Q: What about the Cmax (in vivo; meibomian glands) of the same compound?
A: 2730 ng/g

Q: What about the Tmax (in vivo; meibomian glands) of the same compound?
A: 1 h

Q: And the half-life (in vivo; meibomian glands)?
A: 4.32 h
